Six compounds from article PMC9481563, “Structural insights into the pSer/pThr dependent regulation of the SHP2 tyrosine phosphatase in insulin and CD28 signaling” (Nature Communications, 2022) can be followed below.

Molecules are shown by their SMILES.

This assay addresses T1, inactive SHP2 catalytic domain Flapmut (H426F) (Homo sapiens, UniProt Q06124, C459S/H426F).
T1 construct: SHP2 H425F (Flapmut); 219-528 + C459S; His6 (N); made in house; host or cells: E. coli BL21 (DE3)
T1 sequence (Q06124 219-528 H426F/C459S): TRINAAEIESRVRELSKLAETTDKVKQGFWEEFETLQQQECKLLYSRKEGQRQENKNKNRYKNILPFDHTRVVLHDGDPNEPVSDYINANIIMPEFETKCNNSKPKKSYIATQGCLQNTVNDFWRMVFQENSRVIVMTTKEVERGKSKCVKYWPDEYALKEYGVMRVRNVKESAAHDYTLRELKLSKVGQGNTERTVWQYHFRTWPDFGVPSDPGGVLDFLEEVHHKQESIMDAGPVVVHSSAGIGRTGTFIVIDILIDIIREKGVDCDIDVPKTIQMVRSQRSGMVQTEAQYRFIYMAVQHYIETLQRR
The assay is described as follows: Fluorescence polarization titrations, SHP2 Flapmut. Particulars: competitive FP titration vs CF-ppIRS1 100 nM, protein fixed; n = 3 technical replicates. Format: binding. From the text: The two SH2 domains of PI3KR1 (UniProt P27986; nSH2: 321−433 cSH2: 614–724) were cloned from HEK293T cDNA pool, and subsequently ligated into a modified pET vector encoding maltose binding protein (MBP) tag on the N-terminal and a hexa-His tag on the C-terminal end of the construct. Similarly, the catalytic, tyrosine phosphatase domains of PTPRε (P23469 first domain: 107–399) and PTP1B (P18031; 1–229) were cloned from a HEK293T cDNA pool, and inserted into a pBH4 vector encoding an N-terminal His6 tag (for the final binding experiments, an MBP-tagged version of PTPRε was employed). […] Surface mutants of SHP2 were constructed from the SHP2-C459S plasmid, using the QuickChange protocol. The D425A and H426A catalytic site mutants and all enzymatically active surface mutants were generated similarly, but from the plasmid encoding the wild-type catalytic domain of SHP2. Wild-type C-terminal FLAG-tagged human IRS1 was cloned between HindIII-NotI sites of pcDNA3.1(+) vector (#V79020 Invitrogen, Waltham MA USA). Ser/Ala mutant IRS1 was generated by replacing the region of S616/S636/S666/S736 positions with a cassette carrying S616A/S636A/S666A/S736A mutations. All constructs were validated by complete Sanger sequencing before protein expression and purification. The oligonucleotide sequences used are shown on Supplementary table 4.
Fluorescence polarization (FP) assays were performed as follows: In direct titration experiments, protein concentration was varied in an 1/2 or 2/3 dilution series (90 µl protein+ 45 µl mix), while concentration of the reporter peptide (CF-ppIRS1) was kept constant at 100 nM. In competitive titrations, the labelled CF-ppIRS1 peptide and protein were both fixed (at 50–80% saturation) and the unlabelled competitor peptide concentration was varied. Fluorescence polarization was always measured in triplicates, on black Corning low volume round bottom 384-well plates (with 10 ul volumes), using a BioTek Cytatation 5 reader, with the green fluorescent protein (GFP) cube filter set (ex: 485/20, em: 528/20, gain: 50, height: 7.5). Fluorescence polarization data was evaluated on Origin 2018. The dissociation constants (Kd) were determined by using the appropriate quadratic and cubic equations inserted as a user-defined function and applying nonlinear fit until convergence. The fitting formulae are shown at Supplementary note 1. Kd ratio distributions for Fig. 6 were calculated using a Monte-Carlo approach (Supplementary note 2).
Supplementary note 1. Curve fitting of fluorescence polarization (FP) measurements.
To evaluate polarization values from direct and competitive titrations, we used the following fitting formulae in Origin 2018, as detailed below.
Direct titration curves were fitted according to the following formula: […]
Where Imin is the minimal anisotropy, Imax is the (asymptotically estimated) maximal intensity. K0 is the starting concentration of the protein, while T0 is the (fixed) concentration of the labelled peptide and Kd is the dissociation constant.
Competitive titration curves were fitted with a different formula (In addition to those defined above, constants KdT KdB B0 T0 and D0 here refer to the Kd derived from the direct titration, the unknown Kd of the analyte, the labelled peptide concentration, the competitor peptide concentration as well as the protein concentration, respectively).
The ± sign refers to two different scenarios, depending on the sign of discriminant (KdT > KdB or […]). For unknown analytes, the choice of sign is not arbitrary, as the fitting will not converge unless the appropriate formula is chosen: […]
Where A, B and C correspond to the following expressions: […]
Compound `CC[C@H](C)[C@H](NC(=O)[C@H](CC(N)=O)NC(=O)[C@@H](NC(=O)[C@H](Cc1ccc(OP(=O)(O)O)cc1)NC(=O)[C@H](CCC(=O)O)NC(=O)CNC(=O)[C@@H]1CCCN1C(=O)[C@H](CO)NC(=O)[C@H](CCCCN)NC(=O)[C@@H]1CCCN1C(=O)[C@@H](N)CCC(=O)O)C(C)C)C(=O)N[C@@H](CCC(=O)O)C(=O)N[C@@H](Cc1ccccc1)C(=O)O` [p0SRev-IRS1] returned a Kd of 6.05 ± 0.29 µM. The same measure for `CSCC[C@H](NC(=O)[C@@H]1CCCN1C(=O)[C@H](CCSC)NC(=O)[C@H](Cc1ccc(OP(=O)(O)O)cc1)NC(=O)[C@H](CC(=O)O)NC(=O)CNC(=O)[C@H](CO)NC(=O)CNC(=O)[C@H](CCCCN)NC(=O)[C@H](CCCNC(=N)N)NC(=O)CN)C(=O)N[C@@H](COP(=O)(O)O)C(=O)N1CCC[C@H]1C(=O)N[C@@H](CCCCN)C(=O)N[C@@H](CO)C(=O)O` [ppIRS1]: 3.89 ± 0.19 µM; for `CC[C@H](C)[C@H](NC(=O)[C@H](CC(N)=O)NC(=O)[C@@H](NC(=O)[C@H](Cc1ccc(OP(=O)(O)O)cc1)NC(=O)[C@H](CCC(=O)O)NC(=O)CNC(=O)[C@@H]1CCCN1C(=O)[C@H](COP(=O)(O)O)NC(=O)[C@H](CCCCN)NC(=O)[C@@H]1CCCN1C(=O)[C@@H](N)CCC(=O)O)C(C)C)C(=O)N[C@@H](CCC(=O)O)C(=O)N[C@@H](Cc1ccccc1)C(=O)O` [ppSRev-IRS1]: 0.54 ± 0.03 µM; for `CSCC[C@H](NC(=O)[C@H](Cc1ccc(OP(=O)(O)O)cc1)NC(=O)[C@H](CC(=O)O)NC(=O)[C@H](CO)NC(=O)[C@H](Cc1c[nH]cn1)NC(=O)[C@H](CC(C)C)NC(=O)[C@H](CC(C)C)NC(=O)[C@H](CCCNC(=N)N)NC(=O)[C@H](CO)NC(=O)[C@@H](N)CCCNC(=N)N)C(=O)N[C@@H](CC(N)=O)C(=O)N[C@@H](CCSC)C(=O)N[C@H](C(=O)N1CCC[C@H]1C(=O)N[C@@H](CCCNC(=N)N)C(=O)N[C@@H](CCCNC(=N)N)C(=O)O)[C@@H](C)OP(=O)(O)O` [ppCD28]: 9.96 ± 0.47 µM.

For `CSCC[C@H](NC(=O)[C@H](Cc1ccc(OP(=O)(O)O)cc1)NC(=O)[C@H](CC(=O)O)NC(=O)[C@H](CO)NC(=O)[C@H](Cc1c[nH]cn1)NC(=O)[C@H](CC(C)C)NC(=O)[C@H](CC(C)C)NC(=O)[C@H](CCCNC(=N)N)NC(=O)[C@H](CO)NC(=O)[C@@H](N)CCCNC(=N)N)C(=O)N[C@@H](CC(N)=O)C(=O)N[C@@H](CCSC)C(=O)N[C@H](C(=O)N1CCC[C@H]1C(=O)N[C@@H](CCCNC(=N)N)C(=O)N[C@@H](CCCNC(=N)N)C(=O)O)[C@@H](C)O` [p0CD28], the affinity, expressed as Kd, was 63.7 ± 3.1 µM. The compound `CSCC[C@H](NC(=O)[C@@H]1CCCN1C(=O)[C@H](CCSC)NC(=O)[C@H](Cc1ccc(OP(=O)(O)O)cc1)NC(=O)[C@H](CC(=O)O)NC(=O)CNC(=O)[C@H](CO)NC(=O)CNC(=O)[C@H](CCCCN)NC(=O)[C@H](CCCNC(=N)N)NC(=O)CN)C(=O)N[C@@H](CO)C(=O)N1CCC[C@H]1C(=O)N[C@@H](CCCCN)C(=O)N[C@@H](CO)C(=O)O` [p0IRS1] returned a dissociation constant Kd of 172 ± 4.89 µM. Compared with the last compound, the Kd is about 2.7-fold higher.

By Kd is commonly meant the equilibrium constant for the complex coming apart. Read a low Kd as a tighter complex.
